Laboratory results taken from US9937151B2, “Carbapenem antibacterials with gram-negative activity” (priority 2010, dated 2018).
Values after ≈ are worked out from the molar mass of the structure shown.

System: G(−) bacterial strains
Assay: Dilution antimicrobial susceptibility tests (MIC, NCCLS agar dilution / broth dilution)
Format: cell-based, Gram-negative organisms
Details: unit assumed
Method: The MIC (minimum inhibitory concentration) was determined by the NCCLS (National Committee for Clinical Laboratory Standards) methods 2000. Methods for dilution antimicrobial susceptibility testing for bacteria that growth aerobically (M7-A5, vol. 20, No. 2). The agar dilution method for determining antimicrobial susceptibility was carried out using Mueller-Hinton agar. A final inoculum of 10^4 CFU/spot was applied with an inoculation device. Broth dilution tests were performed with 5×10^5 CFU/well in 96 well plates. The susceptibilities of streptococci were determined by Mueller-Hinton agar supplemented with 5% sheep blood. All assays were run with the indicated control strains, available from the ATCC (American Type Culture Collection, Rockville, Md.).
Abbreviations used in Table 1 are defined as follows: Cf-R: Ceftazidime Resistance, Ci-R: Ciprofloxacin Resistance, Gen-R: Gentamycin Resistance, Imp-R: Imipenem Resistance, Mp-R: Meropenem Resistance, Ofx-R: Ofloxacin Resistance, B+: β-lactamase Production, AmpC: AmpC-lactamase Hyper production, CBPase: Carbapenemase Production.

[1] = strain #1 Acinetobacter calcoaceticus
[2] = strain #2 Acinetobacter baumannii, Cf-R, Ci-R
[3] = strain #3 Acinetobacter baumannii, Cf-R, Ci-R, Mp-I
[4] = strain #4 Acinetobacter baumannii, Cf-R, Imp-I, CBPase
[5] = strain #7 Enterobacter aerogenes
[6] = strain #8 Enterobacter cloacae, Cf-R, B+
[7] = strain #9 Enterobacter cloacae, Cf-R
[8] = strain #10 Escherichia coli, Ci-R
[9] = strain #11 Escherichia coli, Ci-R, AmpC
[10] = strain #15 Klebsiella pneumoniae
[11] = strain #16 Moraxella catarrhalis
[12] = strain #21 Providencia rettgeri
[13] = strain #22 Salmonella typhimurium
[14] = strain #25 Shigella dysenteriae
[15] = strain #28 Stenotrophomonas maltophilia
[16] = strain #29 Pseudomonas aeruginosa
[17] = strain #30 Pseudomonas aeruginosa
[18] = strain #31 Pseudomonas aeruginosa, Ofx-R
[19] = strain #32 Pseudomonas aeruginosa, Cf-R
[20] = strain #33 Pseudomonas aeruginosa, Ci-R
[21] = strain #34 Pseudomonas aeruginosa, Gen-R
[22] = strain #35 Pseudomonas aeruginosa, Ip-R
[23] = strain #36 Pseudomonas aeruginosa, Cf-R, Ci-R, Mp-R

SMILES	MIC [1] [µg/mL]	MIC [2] [µg/mL]	MIC [3] [µg/mL]	MIC [4] [µg/mL]	MIC (strain #5 Citrobacter diversus) [µg/mL]	MIC (strain #6 Citrobacter freundii) [µg/mL]	MIC [5] [µg/mL]	MIC [6] [µg/mL]	MIC [7] [µg/mL]	MIC [8] [µg/mL]	MIC [9] [µg/mL]	MIC (strain #12 Escherichia coli) [µg/mL]	MIC (strain #13 Escherichia coli) [µg/mL]	MIC (strain #14 Klebsiella oxytoca) [µg/mL]	MIC [10] [µg/mL]	MIC [11] [µg/mL]	MIC (strain #17 Morganella Morganii) [µg/mL]	MIC (strain #18 Morganella Morganii) [µg/mL]	MIC (strain #19 Proteus vulgaris) [µg/mL]	MIC (strain #20 Proteus mirabilis) [µg/mL]	further results
C[C@@H](O)[C@H]1C(=O)N2C(C(=O)O)=C(CN3CC(O)C(NC(=N)N)C3)[C@H](C)[C@H]12 (mixture of isomers) [Compound 176]	0.13	0.5	1	1	0.063	0.13	0.25	0.063	0.13	0.063	0.063	0.063	0.13	0.13	0.13	≤ 0.008	1	0.5	0.25	0.063	MIC [12]: 0.25 µg/mL; MIC [13]: 0.13 µg/mL; MIC (strain #23 Serratia marcescens): 0.25 µg/mL; MIC (strain #24 Serratia marcescens): 0.25 µg/mL; MIC [14]: 0.13 µg/mL; MIC (strain #26 Shigella sonnei): 0.063 µg/mL; MIC (strain #27 Shigella flexneri): 0.063 µg/mL; MIC [15]: 0.063 µg/mL; MIC [16]: 1 µg/mL; MIC [17]: 1 µg/mL; MIC [18]: 0.5 µg/mL; MIC [19]: 1 µg/mL; MIC [20]: 1 µg/mL; MIC [21]: 1 µg/mL; MIC [22]: 2 µg/mL; MIC [23]: 8 µg/mL
CC(O)C1C(=O)N2C(C(=O)O)=C(CN3CC(O)C(C(=N)N)C3)C(C)C12 (mixture of isomers) [Compound 185b]	0.13	0.5	2	1	0.063	0.063	0.25	0.063	0.13	0.031	0.031	0.031	0.063	0.13	0.13	≤ 0.008	0.5	0.5	0.25	0.063	MIC [12]: 0.25 µg/mL; MIC [13]: 0.063 µg/mL; MIC (strain #23 Serratia marcescens): 0.13 µg/mL; MIC (strain #24 Serratia marcescens): 0.13 µg/mL; MIC [14]: 0.063 µg/mL; MIC (strain #26 Shigella sonnei): 0.063 µg/mL; MIC (strain #27 Shigella flexneri): 0.063 µg/mL; MIC [15]: 0.13 µg/mL; MIC [16]: 1 µg/mL; MIC [17]: 1 µg/mL; MIC [18]: 0.5 µg/mL; MIC [19]: 1 µg/mL; MIC [20]: 1 µg/mL; MIC [21]: 1 µg/mL; MIC [22]: 4 µg/mL; MIC [23]: 8 µg/mL
C[C@@H](O)C1C(=O)N2C(C(=O)O)=C(CN3CC[C@H](C#N)C3)[C@H](C)C12 (stereo partly drawn) [Compound 7]	4 (≈ 12.5 µM)	2 (≈ 6.26 µM)	4 (≈ 12.5 µM)	4 (≈ 12.5 µM)	0.063 (≈ 0.197 µM)	0.13 (≈ 0.407 µM)	0.5 (≈ 1.57 µM)	0.13 (≈ 0.407 µM)	0.25 (≈ 0.783 µM)	0.13 (≈ 0.407 µM)	0.13 (≈ 0.407 µM)	0.13 (≈ 0.407 µM)	0.13 (≈ 0.407 µM)	0.25 (≈ 0.783 µM)	0.25 (≈ 0.783 µM)	≤ 0.008	1 (≈ 3.13 µM)	1 (≈ 3.13 µM)	0.5 (≈ 1.57 µM)	0.13 (≈ 0.407 µM)	MIC [12]: 0.5 µg/mL (≈ 1.57 µM); MIC [13]: 0.13 µg/mL (≈ 0.407 µM); MIC (strain #23 Serratia marcescens): 0.25 µg/mL (≈ 0.783 µM); MIC (strain #24 Serratia marcescens): 0.5 µg/mL (≈ 1.57 µM); MIC [14]: 0.25 µg/mL (≈ 0.783 µM); MIC (strain #26 Shigella sonnei): 0.13 µg/mL (≈ 0.407 µM); MIC (strain #27 Shigella flexneri): 0.13 µg/mL (≈ 0.407 µM); MIC [15]: 0.5 µg/mL (≈ 1.57 µM); MIC [16]: 16 µg/mL (≈ 50.1 µM); MIC [17]: 8 µg/mL (≈ 25.1 µM); MIC [18]: 2 µg/mL (≈ 6.26 µM); MIC [19]: 8 µg/mL (≈ 25.1 µM); MIC [20]: 8 µg/mL (≈ 25.1 µM); MIC [21]: 8 µg/mL (≈ 25.1 µM); MIC [22]: 32 µg/mL (≈ 100 µM); MIC [23]: > 32 µg/mL
C[C@@H](O)C1C(=O)N2C(C(=O)O)=C(CN3CC[C@H](C(N)=O)C3)[C@H](C)C12 (stereo partly drawn) [Compound 12]	0.5 (≈ 1.48 µM)	0.5 (≈ 1.48 µM)	2 (≈ 5.93 µM)	1 (≈ 2.96 µM)	0.13 (≈ 0.385 µM)	0.25 (≈ 0.741 µM)	1 (≈ 2.96 µM)	0.13 (≈ 0.385 µM)	0.25 (≈ 0.741 µM)	0.13 (≈ 0.385 µM)	0.13 (≈ 0.385 µM)	0.13 (≈ 0.385 µM)	0.25 (≈ 0.741 µM)	0.5 (≈ 1.48 µM)	0.5 (≈ 1.48 µM)	≤ 0.008	2 (≈ 5.93 µM)	1 (≈ 2.96 µM)	0.5 (≈ 1.48 µM)	0.25 (≈ 0.741 µM)	MIC [12]: 1 µg/mL (≈ 2.96 µM); MIC [13]: 0.25 µg/mL (≈ 0.741 µM); MIC (strain #23 Serratia marcescens): 0.5 µg/mL (≈ 1.48 µM); MIC (strain #24 Serratia marcescens): 1 µg/mL (≈ 2.96 µM); MIC [14]: 0.25 µg/mL (≈ 0.741 µM); MIC (strain #26 Shigella sonnei): 0.25 µg/mL (≈ 0.741 µM); MIC (strain #27 Shigella flexneri): 0.25 µg/mL (≈ 0.741 µM); MIC [15]: 0.25 µg/mL (≈ 0.741 µM); MIC [16]: 4 µg/mL (≈ 11.9 µM); MIC [17]: 4 µg/mL (≈ 11.9 µM); MIC [18]: 1 µg/mL (≈ 2.96 µM); MIC [19]: 4 µg/mL (≈ 11.9 µM); MIC [20]: 4 µg/mL (≈ 11.9 µM); MIC [21]: 4 µg/mL (≈ 11.9 µM); MIC [22]: 8 µg/mL (≈ 23.7 µM); MIC [23]: 32 µg/mL (≈ 94.8 µM)
